Literature values, collected in patent publication US20190358212A1, “USES OF EGFR/HER2 INHIBITOR COMBINED WITH PYRIMIDINE-TYPE ANTI-METABOLIC DRUG” (Jiangsu Hengrui Medicine Co., Ltd., priority 2017, published 2019).

What was measured:
[1] = target: HER2 (Homo sapiens, UniProt P04626); conditions: CN102471312A
[2] = test system: HER2+ metastatic breast cancer; conditions: J Clin Oncol 33, 2015 (suppl; abstr e11596)
[3] = target: EGFR (Homo sapiens, UniProt P00533); conditions: CN102471312A
Chain of EGFR (P00533 25-1210): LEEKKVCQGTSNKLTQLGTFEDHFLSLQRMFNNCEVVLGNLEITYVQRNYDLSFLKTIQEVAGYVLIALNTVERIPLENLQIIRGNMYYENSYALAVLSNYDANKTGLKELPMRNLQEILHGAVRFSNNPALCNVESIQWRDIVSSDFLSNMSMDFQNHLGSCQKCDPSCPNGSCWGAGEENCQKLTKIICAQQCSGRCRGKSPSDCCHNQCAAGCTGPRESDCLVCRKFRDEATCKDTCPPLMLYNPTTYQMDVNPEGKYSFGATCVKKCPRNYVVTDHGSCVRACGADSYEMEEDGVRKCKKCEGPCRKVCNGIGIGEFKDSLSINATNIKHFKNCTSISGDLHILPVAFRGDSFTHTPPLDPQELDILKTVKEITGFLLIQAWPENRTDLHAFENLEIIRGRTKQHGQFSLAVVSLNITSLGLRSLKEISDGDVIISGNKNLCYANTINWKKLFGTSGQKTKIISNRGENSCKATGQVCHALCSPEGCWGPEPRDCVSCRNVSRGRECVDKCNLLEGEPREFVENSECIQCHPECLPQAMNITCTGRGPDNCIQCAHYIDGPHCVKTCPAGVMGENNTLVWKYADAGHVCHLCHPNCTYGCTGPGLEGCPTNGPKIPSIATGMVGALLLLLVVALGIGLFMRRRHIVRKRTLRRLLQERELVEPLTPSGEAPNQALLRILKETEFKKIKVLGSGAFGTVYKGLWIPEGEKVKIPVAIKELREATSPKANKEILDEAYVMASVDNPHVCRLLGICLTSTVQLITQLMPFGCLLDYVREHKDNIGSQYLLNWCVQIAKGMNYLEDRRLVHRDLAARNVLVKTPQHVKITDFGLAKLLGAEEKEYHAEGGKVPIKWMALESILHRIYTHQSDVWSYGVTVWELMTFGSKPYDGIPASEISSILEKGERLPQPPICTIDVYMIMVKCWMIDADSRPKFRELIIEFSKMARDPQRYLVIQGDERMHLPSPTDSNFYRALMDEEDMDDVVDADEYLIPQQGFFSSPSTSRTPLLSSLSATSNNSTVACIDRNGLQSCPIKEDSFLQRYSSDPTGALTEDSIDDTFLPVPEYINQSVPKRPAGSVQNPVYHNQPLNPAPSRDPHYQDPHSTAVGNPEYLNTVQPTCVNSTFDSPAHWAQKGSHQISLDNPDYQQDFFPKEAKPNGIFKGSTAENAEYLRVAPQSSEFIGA

Chain of HER2 (P04626 23-1255): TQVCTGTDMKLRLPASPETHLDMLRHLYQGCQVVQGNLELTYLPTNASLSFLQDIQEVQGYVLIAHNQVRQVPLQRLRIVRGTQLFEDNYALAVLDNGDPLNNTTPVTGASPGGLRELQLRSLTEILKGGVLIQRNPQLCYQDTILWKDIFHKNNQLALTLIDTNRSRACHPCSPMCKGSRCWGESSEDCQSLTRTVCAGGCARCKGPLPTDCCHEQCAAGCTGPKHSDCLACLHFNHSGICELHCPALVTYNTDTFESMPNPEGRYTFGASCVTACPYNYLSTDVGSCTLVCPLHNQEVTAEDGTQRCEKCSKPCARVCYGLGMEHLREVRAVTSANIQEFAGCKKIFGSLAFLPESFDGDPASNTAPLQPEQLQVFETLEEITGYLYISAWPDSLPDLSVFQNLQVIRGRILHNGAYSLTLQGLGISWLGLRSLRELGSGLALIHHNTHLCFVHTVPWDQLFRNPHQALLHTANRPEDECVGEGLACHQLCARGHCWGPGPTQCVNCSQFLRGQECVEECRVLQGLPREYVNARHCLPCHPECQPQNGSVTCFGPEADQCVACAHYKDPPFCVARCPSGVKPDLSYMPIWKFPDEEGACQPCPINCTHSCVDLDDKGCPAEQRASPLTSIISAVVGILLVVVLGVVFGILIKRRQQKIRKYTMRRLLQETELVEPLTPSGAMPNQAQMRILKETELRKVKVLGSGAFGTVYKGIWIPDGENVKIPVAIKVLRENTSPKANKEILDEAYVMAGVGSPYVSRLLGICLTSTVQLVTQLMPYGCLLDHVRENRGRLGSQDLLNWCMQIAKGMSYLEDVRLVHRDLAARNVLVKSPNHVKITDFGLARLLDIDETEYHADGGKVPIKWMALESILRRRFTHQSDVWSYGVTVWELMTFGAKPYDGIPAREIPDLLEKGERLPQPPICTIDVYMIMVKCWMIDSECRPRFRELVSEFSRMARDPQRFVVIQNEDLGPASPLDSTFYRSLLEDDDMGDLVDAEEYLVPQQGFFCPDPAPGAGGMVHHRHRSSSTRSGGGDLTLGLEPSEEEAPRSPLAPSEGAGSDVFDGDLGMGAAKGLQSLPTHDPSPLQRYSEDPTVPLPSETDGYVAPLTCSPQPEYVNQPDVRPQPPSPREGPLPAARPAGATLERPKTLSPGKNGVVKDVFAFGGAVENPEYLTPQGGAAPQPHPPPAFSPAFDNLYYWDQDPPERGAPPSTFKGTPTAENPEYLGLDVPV

CCOc1cc2ncc(C#N)c(Nc3ccc(OCc4ccccn4)c(Cl)c3)c2cc1NC(=O)/C=C/[C@H]1CCCN1C [Compound A, (E)-N-[4-[[3-chloro-4-(2-pyridylmethoxy)phenyl]amino]-3-cyano-7-ethoxy-6-quinolyl]-3-[(2R)-1-methylpyrrolidin-2-yl]prop-2-enamide]
inhibition effect on HER2 [1]: potent inhibition effect | effect on patients with HER2+ metastatic breast cancer [2]: a certain effect | inhibition effect on EGFR [3]: potent inhibition effect
